Read-outs that look alike come from different tables or passages of the source.

We go through seven compounds from article PMC6527550, “Discovery of processive catalysis by an exo-hydrolase with a pocket-shaped active site” (Nature Communications, 2019).

One assay has as its target native HvExoI (Hordeum vulgare, UniProt Q9XEI3). Description: Inhibition kinetics (Ki) with 4-nitrophenyl β-D-glucopyranoside substrate. Format: biochemical, barley (Hordeum vulgare). The settings on record: for ΔG: calculated from Ki; for ΔG / Ki: native HvExoI; for Ki: inhibition kinetics, 4-nitrophenyl β-D-glucopyranoside substrate, 30 °C, pH 5.25. The method, then:
Ki values of deoxy-glucose and alkyl β-D-glucoside derivatives, and G2SG-OMe with native HvExoI were derived from hydrolytic rates. Enzyme inactivation was monitored at 30 °C by incubating […] of the enzyme in 100 mM sodium acetate buffer, pH 5.25, containing 0.8–6.6 mM 4NPGlc as a substrate, 160 μg/ml BSA, and 3dGlc, 4dGlc, octyl-O-Glc, octyl-S-Glc and G2SG-OMe. Each inhibitor was tested at six concentrations at 0.4–3 times the Ki values in duplicate. We used the v = Vmax S / [KM × (1 + I/Ki) + S] equation to calculate Ki constant; Ki is defined as a dissociation constant of the enzyme-inhibitor complex. The enzyme activity was monitored at 410 nm and Dixon plots were used to determine Ki under the pseudo-first-order rate limiting conditions by a non-linear regression analysis, as described previously.

Another assay addresses recombinant HvExoI (Hordeum vulgare, UniProt Q9XEI3). In words: Steady-state affinity binding by Surface Plasmon Resonance. To be noted: for ΔG: calculated from KD. Further details: species or system barley (Hordeum vulgare). The procedure: Interaction between recombinant HvExoI and analytes Glc (molecular mass 180.2 g), G6SG-OMe (372.4 g) and PEG (n = 5–10); (380–420 g) were performed using Surface Plasmon Resonance (SPR) at 25 °C using the Biacore X100 V2.0.1 instrument (GE Healthcare, USA) equipped with the plus package. Purified recombinant HvExoI at 99% homogeneity (detected by SDS-PAGE) was covalently attached to a CM5 chip (GE Healthcare) in 10 mM sodium acetate buffer, pH 5.0. The carboxymethyl groups present on the dextran layer of the CM5 chip were activated with 1-ethyl-3-(3-dimethylaminopropyl) carbodiimide hydrochloride (EDC) and N-hydroxysuccinimide (NHS) (GE Healthcare). Any unoccupied reactive sites were blocked by a 7 min injection of 1 M ethanolamine hydrochloride-NaOH, pH 8.5. A ligand density of ~15.000 RU of recombinant HvExoI was achieved. Due to the fast rate constants of interactions, it was impossible to obtain individual rate constants ka and kd. […] For each interaction serial dilutions of analytes covering the 10 · KD − 0.1 · KD concentration ranges were prepared in 10 mM HEPES-NaOH buffer, pH 7.4 with 150 mM NaCl. Samples were injected onto the surface of a chip at a rate of 30 µl/min for 90 s, after which the formed enzyme/analyte complexes could dissociate for 90 s. As all analytes dissociated completely from the surface of the recombinant enzyme immobilised on a chip, no regeneration steps were needed. All responses were double referenced using a blank-immobilised reference surface (NHS + EDC-activated/deactivated) and a series of blank injections conducted to account for the system and injection artefacts. For each analyte at least one concentration was injected in duplicate. Triplicate experiments were performed, and the double-referenced data were globally fitted using a 1:1 equilibrium interaction model and the Biacore T200 v2.0 analysis software (GE Healthcare). Steady-state affinity binding constants KD (Supplementary Fig. 3) were calculated 30 s after the onset of injections using a 5 s window in an average response in the fit.

Sequence of recombinant HvExoI (Q9XEI3 entry or part of it): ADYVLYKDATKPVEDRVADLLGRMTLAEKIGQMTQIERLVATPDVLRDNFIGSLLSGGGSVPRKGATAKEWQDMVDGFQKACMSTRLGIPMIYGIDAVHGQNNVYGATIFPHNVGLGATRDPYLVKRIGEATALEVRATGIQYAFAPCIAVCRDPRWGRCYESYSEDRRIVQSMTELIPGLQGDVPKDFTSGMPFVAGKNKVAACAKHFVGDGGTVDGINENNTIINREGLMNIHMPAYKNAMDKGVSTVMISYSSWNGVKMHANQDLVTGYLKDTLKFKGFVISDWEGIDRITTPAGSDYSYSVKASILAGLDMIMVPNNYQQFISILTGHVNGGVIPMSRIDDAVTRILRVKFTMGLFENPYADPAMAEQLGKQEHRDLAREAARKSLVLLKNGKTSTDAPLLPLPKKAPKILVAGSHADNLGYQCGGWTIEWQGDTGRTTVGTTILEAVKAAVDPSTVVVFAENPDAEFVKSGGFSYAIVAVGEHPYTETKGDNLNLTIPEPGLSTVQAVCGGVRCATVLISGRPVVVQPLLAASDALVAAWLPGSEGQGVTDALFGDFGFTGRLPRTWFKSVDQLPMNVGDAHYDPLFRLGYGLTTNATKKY
Sequence of native HvExoI (Q9XEI3 entry or part of it): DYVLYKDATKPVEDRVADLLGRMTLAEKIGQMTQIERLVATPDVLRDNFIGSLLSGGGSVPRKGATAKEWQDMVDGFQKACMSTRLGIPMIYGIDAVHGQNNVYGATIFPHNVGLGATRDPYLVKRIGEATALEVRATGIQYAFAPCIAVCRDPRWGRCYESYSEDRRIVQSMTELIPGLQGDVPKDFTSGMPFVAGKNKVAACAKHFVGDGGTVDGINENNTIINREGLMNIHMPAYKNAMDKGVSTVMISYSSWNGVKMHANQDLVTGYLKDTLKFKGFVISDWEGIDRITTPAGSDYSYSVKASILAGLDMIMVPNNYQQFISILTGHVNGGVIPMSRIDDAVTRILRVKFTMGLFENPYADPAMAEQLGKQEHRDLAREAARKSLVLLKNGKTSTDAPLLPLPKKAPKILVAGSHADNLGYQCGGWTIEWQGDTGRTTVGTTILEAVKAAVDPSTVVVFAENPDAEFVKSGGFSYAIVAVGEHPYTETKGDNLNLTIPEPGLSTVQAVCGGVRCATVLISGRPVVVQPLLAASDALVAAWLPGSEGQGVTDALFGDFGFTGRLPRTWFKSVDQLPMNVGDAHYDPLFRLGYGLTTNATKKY

Turning to `O=C[C@H](O)[C@@H](O)C[C@H](O)CO` [4dGlc, 4-deoxy-glucose], on native HvExoI, the ΔG is -2.82 kcal/mol and the Ki was 9400 µM.
With `OC[C@H]1OC(O)[C@H](O)[C@@H](O)[C@@H]1O` (stereo partly drawn) [Glc], on recombinant HvExoI, the Kd was determined as 160 µM. Further, at recombinant HvExoI (recombinant HvExoI), the ΔG is -5.19 kcal/mol.
Regarding `CCCCCCCCS[C@@H]1O[C@H](CO)[C@@H](O)[C@H](O)[C@H]1O` [Octyl-S-Glc, n-octyl 1-thio-β-D-glucopyranoside], at native HvExoI, the ΔG is -4.11 kcal/mol and the Ki was found to be 1100 µM.
With `CO[C@@H]1O[C@H](CO)[C@@H](O)[C@H](O)[C@H]1S[C@@H]1O[C@H](CO)[C@@H](O)[C@H](O)[C@H]1O` [G2SG-OMe, methyl 2-S-β-D-glucopyranosyl-2-thio-β-D-glucopyranoside], the “fold weaker binding than G6SG-OMe” value at native HvExoI (Ki of G2SG-OMe compared with KD of G6SG-OMe) is recorded as “about 320 fold”. Moreover, at native HvExoI, the ΔG is -3.61 kcal/mol and the Ki amounted to 2550 µM.
On to `CCCCCCCCO[C@@H]1O[C@H](CO)[C@@H](O)[C@H](O)[C@H]1O` [Octyl-O-Glc, n-octyl β-D-glucopyranoside], for which, on native HvExoI, the ΔG was -5.4 kcal/mol and the Ki is 130 µM.
In the case of `CO[C@@H]1O[C@H](CS[C@@H]2O[C@H](CO)[C@@H](O)[C@H](O)[C@H]2O)[C@@H](O)[C@H](O)[C@H]1O` [G6SG-OMe, methyl 6-S-β-D-glucopyranosyl-6-thio-β-D-glucopyranoside], the ΔG at recombinant HvExoI (recombinant HvExoI) is -6.96 kcal/mol. Further, on recombinant HvExoI (steady-state affinity, Surface Plasmon Resonance, recombinant HvExoI, 25 °C, read-out: KD), the Kd stood at 8 µM.
For the compound `O=C[C@H](O)C[C@H](O)[C@H](O)CO` [3dGlc, 3-deoxy-glucose], at native HvExoI, the ΔG is -2.8 kcal/mol and the Ki was 9800 µM.
